Measurements reported in publication PMC9148066, “The Medicinal Halophyte Frankenia laevis L. (Sea Heath) Has In Vitro Antioxidant Activity, α-Glucosidase Inhibition, and Cytotoxicity towards Hepatocarcinoma Cells” (Plants, 2022).
Marks after values point to notes of the source that are not given here.

Columns and labels:
RSA on DPPH radical = conditions: DPPH 120 µM, 30 min
Protocol: (§1) The absorbance was measured in a microplate reader (Biotek Synergy 4), and the activity was calculated as a percentage of inhibition, relative to a control containing DMSO in place of the sample.
(§2) The extracts were tested on DPPH and ABTS, as described elsewhere. The samples were mixed with radical solutions (DPPH: 120 µM; ABTS: 7.4 mM) in 96-well flat-bottom microtitration plates and were incubated in darkness at RT for 30 and 6 min, respectively. The synthetic antioxidant BHT (E320), used as a preservative in food and cosmetics, was used as a positive control at the same concentrations of the samples. The absorbance was measured at 517 and 734 nm for DPPH and ABTS, respectively.

RSA on ABTS radical = conditions: ABTS 7.4 mM, 6 min
Protocol: as §1, §2

[1] = tested on: human lung carcinoma cells (A549); parameters: method as in PMID 19471192; conditions: cited from earlier work
[2] = Copper chelating activity (CCA); conditions: pyrocatechol violet, CuSO4
Protocol: (§5) The CCA and ICA of the extracts and the positive control (EDTA) were assessed in 96-well microplates according to the methods described in Rodrigues et al. [53]. For CCA, the samples were mixed with 50 mM Na acetate buffer (pH 6), 4 mM pyrocatechol violet, and 50 µg/mL CuSO4 solution. For ICA, the samples were mixed with distilled water and 0.1 mg/mL FeCl2 solution. After 30 min, a 40 mM ferrozine solution was added. The change in absorbance was measured at 632 and 562 nm for CCA and ICA, correspondingly.

[3] = Iron chelating activity (ICA); conditions: FeCl2, ferrozine
Protocol: as §5

α-glucosidase = molecular target: α-glucosidase; parameters: method as in doi:10.1016/j.sajb.2020.01.011; conditions: cited from earlier work
HepG2 cells [4] = conditions: cited from earlier work
HepG2 cells [5] = assay: Cellular viability assay (MTT), HepG2; format: cell-based; conditions: Homo sapiens, 72 h, read-out: HepG2 cytotoxic activity EC50
Protocol: (§3) The HepG2 (human hepatocellular carcinoma) and S17 (murine bone marrow stromal) cell lines were maintained in Dulbecco’s modified eagle medium (DMEM) culture medium supplemented with 10% heat-inactivated fetal bovine serum (FBS), 1% L-glutamine (2 mM), and 1% penicillin (50 U/mL)/streptomycin (50 μg/mL) and were maintained at 37 °C in humidified atmosphere with 5% CO2.
(§4) HepG2 and S17 cells were plated in 96-well tissue plates at a density of 5 × 10^3 cells/well and were incubated for 24 h. Then, the extracts were applied at several concentrations (3.125, 6.25, 12.5, 25, 50 and 100 µg/mL) for 72 h. The 3-(4,5-dimethylthiazol-2-yl)-2,5-diphenyltetrazolium bromide (MTT) colorimetric test was used to determine the cellular viability (Biotek Synergy 4), as formerly detailed. […] The selectivity index (SI) was obtained by dividing the EC50 value of non-tumoral cells (S17) by the EC50 of tumoral cells (HepG2).

[6] = Cellular viability assay (MTT), S17; format: cell-based; conditions: mouse, S17 bone marrow stromal cells (non-tumoral), read-out: S17 cytotoxic activity EC50
Protocol: as §3, §4

Cc1cc(C(C)(C)C)c(O)c(C(C)(C)C)c1 [BHT, butylated hydroxytoluene]
RSA-DPPH EC50 (RSA on DPPH radical): 0.11 ± 0.00 ^a mg/mL | RSA-ABTS EC50 (RSA on ABTS radical): 0.06 ± 0.00 ^a mg/mL

CC1(C)CCCC2(C)OC(=O)C=C12 (centres unmarked) [Dihydroactinidiolide]
Cytotoxic effect on A549 [1]: strong cytotoxic effect

O=C(O)CN(CCN(CC(=O)O)CC(=O)O)CC(=O)O [EDTA, ethylenediamine tetraacetic acid]
CCA EC50 [2]: 0.17 ± 0.00 ^a mg/mL | ICA EC50 [3]: 0.06 ± 0.00 ^a mg/mL

CC1(C)C[C@H](O)C[C@@]2(C)OC(=O)C=C12 [Loliolide]
α-glucosidase EC50 (α-glucosidase; approx. equivalent of the µM value): approx. 76 µg/mL | EC50 (α-glucosidase): 388 µM | Cytotoxicity against HepG2 cells (HepG2 cells [4]): selective cytotoxicity

COc1cc([C@@H]2c3cc4c(cc3[C@@H](O[C@@H]3O[C@@H]5CO[C@@H](C)O[C@H]5[C@H](O)[C@H]3O)[C@H]3COC(=O)[C@H]23)OCO4)cc(OC)c1O [etoposide]
EC50 (HepG2 cells [5]): 1.45 ± 0.15 µg/mL | EC50 at 72 h [6]: 7.86 ± 0.25 µg/mL

CC1(C)C[C@H](O)C[C@]2(C)OC(=O)C=C12 [isololiolide, Isololiolide]
Cytotoxicity against HepG2 cells (HepG2 cells [4]): selective cytotoxicity
